In paper PMC3310374 (Bioconjugate Chemistry, 2012):

Test system: PC-3 cells
Experiment: Flow cytometric analysis of hypoxic cell induction
Format: cell-based, human
Settings: for Mean fluorescence (FITC antibody against pimonidazole adducts): 10 μM pimonidazole, 2 h

**Q.** Which results are given for `O=[N+]([O-])c1nccn1CC(O)CN1CCCCC1` (stereo not drawn) [pimonidazole]?
**A.** Increase in pimonidazole binding, hypoxic compared to normoxic (PC-3 cells, flow cytometry): fivefold increase; Mean fluorescence (FITC antibody against pimonidazole adducts) (hypoxic PC-3 cells (94.9% N2, 0.1% O2, 5% CO2)): 286; Mean fluorescence (FITC antibody against pimonidazole adducts) (normoxic PC-3 cells (95% air, 5% CO2)): 56.8
